Laboratory results taken from ChEMBL document CHEMBL1201862, “PubChem BioAssay data set” (2004).
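Results reflect a 48-hour exposure of cells in 96-well plates to compound at five concentrations. Here, GI50 denotes the concentration required for 50% inhibition of growth.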 Activity calls are given as the source filed them. Cut-off read from the data, not from the text of the source: active = GI50 up to about 1.1 µM and inactive = higher.

How the values were obtained:
Assay in all cases: inhibition of tumour cell growth, NCI panel, 48 h
HOP-18 = system: HOP-18
LXFL 529 = system: LXFL 529
XF498 = system: XF498
DLD-1 = system: DLD-1
DMS-273 = system: DMS-273
KM-20L2 = system: KM-20L2
DMS-114 = system: DMS-114
M19-MEL = system: M19-MEL
RXF 631 = system: RXF 631

SMILES | GI50 (HOP-18) | GI50 (LXFL 529) | GI50 (XF498) | GI50 (DLD-1) | GI50 (DMS-273) | GI50 (KM-20L2) | GI50 (DMS-114) | GI50 (M19-MEL) | GI50 (RXF 631)
Cc1nc2ccccc2c(=O)n1/N=C(\N=N\c1ccc(Cl)cc1)c1ccc(N(C)C)cc1 | 46 µM (inactive) | 47.8 µM (inactive) | 14.6 µM (inactive) | 71.4 µM (inactive) | 60.1 µM (inactive) | > 100 µM (inactive) | 38.9 µM (inactive) | > 100 µM (inactive) | 
O=C(Cn1ccnc1[N+](=O)[O-])NCc1ccc(F)cc1 | > 100 µM (inactive) | > 100 µM (inactive) | > 100 µM (inactive) |  | > 100 µM (inactive) | > 100 µM (inactive) | > 100 µM (inactive) | > 100 µM (inactive) | > 100 µM (inactive)
Cn1c2c(c3ccccc31)C1CCCCC1C1C(=O)NC(=O)C21 (configuration not stated) | 33.4 µM (inactive) | > 100 µM (inactive) | 44.7 µM (inactive) | 51.3 µM (inactive) | > 10 µM (inactive) |  | 50.4 µM (inactive) | 58.3 µM (inactive) | 41.4 µM (inactive)
C1CN2CCN3CCN4CCN1[PH]243 | > 100 µM (inactive) | > 100 µM (inactive) | > 100 µM (inactive) | > 100 µM (inactive) | > 100 µM (inactive) | > 100 µM (inactive) | > 100 µM (inactive) | > 100 µM (inactive) | 
Cc1cc2c(cc1C)[n+]([O-])c(C(=O)CC(=O)C(=O)Nc1c(C(C)C)cccc1C(C)C)c(C)[n+]2[O-] | > 100 µM (inactive) | > 100 µM (inactive) | > 100 µM (inactive) |  | > 100 µM (inactive) | > 100 µM (inactive) | > 100 µM (inactive) | > 100 µM (inactive) | 
O=C1OCCC1(Cc1ccc(Cl)cc1)Cc1ccc(Cl)cc1 |  | > 100 µM (inactive) | 15.9 µM (inactive) | > 100 µM (inactive) |  |  |  | > 100 µM (inactive) | 
CCOC(=O)COS(=O)(=O)C(F)(F)F | > 100 µM (inactive) | 89.9 µM (inactive) | > 100 µM (inactive) | 41.2 µM (inactive) | 18.4 µM (inactive) | > 100 µM (inactive) | 17.1 µM (inactive) | > 100 µM (inactive) | 45.1 µM (inactive)
Clc1ccc(CCN2CCOCC2)c(Cl)c1 | > 100 µM (inactive) |  | > 100 µM (inactive) | > 100 µM (inactive) |  | > 100 µM (inactive) | > 100 µM (inactive) | > 100 µM (inactive) | > 100 µM (inactive)
Nc1c(C(=O)Nc2ccccc2)[n+]([O-])c2ccccc2[n+]1[O-] | 13.5 µM (inactive) | 14.4 µM (inactive) | 16.6 µM (inactive) | 15.6 µM (inactive) | 20.6 µM (inactive) | 17.7 µM (inactive) | 9.62 µM (inactive) | 15 µM (inactive) | 
O=C1C2C3C=CC(C2C(=O)N1CN1CCSCC1)C1C2C(=O)N(CN4CCSCC4)C(=O)C2C31 (configuration not stated) | 41.2 µM (inactive) | > 100 µM (inactive) | > 100 µM (inactive) | > 51.4 µM (inactive) | > 43.5 µM (inactive) | > 76.2 µM (inactive) | 38.8 µM (inactive) | > 100 µM (inactive) | > 100 µM (inactive)
COC(=O)C12C(=O)O[C@H](C)C1(O)C(C)C(=O)N2C (some centres not stated) | > 100 µM (inactive) |  | 0.662 µM (active) | > 100 µM (inactive) |  |  | > 100 µM (inactive) | > 100 µM (inactive) | 
CCOc1ccc(NC(=O)C2=C(C)NC(C)=C(C(=O)Nc3ccc(OCC)cc3)C2c2ccc(O)c(OC)c2)cc1 |  | 67.3 µM (inactive) | 18.5 µM (inactive) | 96.2 µM (inactive) |  | > 100 µM (inactive) | 56.5 µM (inactive) | > 100 µM (inactive) | 53.5 µM (inactive)
CCOP(=O)(OCC)C1CCCCOC1=O (configuration not stated) | 44.2 µM (inactive) | > 100 µM (inactive) | > 100 µM (inactive) | > 100 µM (inactive) | > 100 µM (inactive) | > 100 µM (inactive) | > 100 µM (inactive) | > 100 µM (inactive) | > 100 µM (inactive)
C/C(=N\NC(=S)N1CCC(N2CCCCC2)CC1)c1ccccn1 | 3.8 µM (inactive) | 0.828 µM (active) | 7 µM (inactive) | 39.7 µM (inactive) | 2.81 µM (inactive) | 4.46 µM (inactive) | 0.522 µM (active) | 3.71 µM (inactive) | 
C=C(CO)CC(/C=C(\C)CC/C=C(\C)CCl)OC(C)=O (configuration not stated) |  | > 100 µM (inactive) | > 100 µM (inactive) | > 100 µM (inactive) | > 100 µM (inactive) | > 100 µM (inactive) | > 100 µM (inactive) | > 100 µM (inactive) | 
OC12c3ccccc3C1CCCCC2N1CCCC1 (configuration not stated) | > 100 µM (inactive) | > 100 µM (inactive) |  |  | > 100 µM (inactive) | > 100 µM (inactive) | > 100 µM (inactive) | > 100 µM (inactive) | 
CC1C(O)=C(O)c2ccccc2N1O (configuration not stated) | 93.8 µM (inactive) | > 100 µM (inactive) | > 100 µM (inactive) | > 100 µM (inactive) | > 100 µM (inactive) | > 100 µM (inactive) |  | > 100 µM (inactive) | > 100 µM (inactive)
O=C(Cc1ccccc1)N/N=C(/c1nc2ccc([N+](=O)[O-])cc2nc1O)C(O)c1ccco1 (configuration not stated) | > 100 µM (inactive) | 87.9 µM (inactive) | > 100 µM (inactive) | > 100 µM (inactive) |  |  | 46.8 µM (inactive) | > 100 µM (inactive) | 
CN(C)CCCNC(=O)c1cccc2nc3ccccc3nc12 | > 42.5 µM (inactive) | 20.2 µM (inactive) | 1.14 µM (inactive) | > 41.6 µM (inactive) | 9.91 µM (inactive) | 25.1 µM (inactive) | 12.3 µM (inactive) | 6.58 µM (inactive) | 32.6 µM (inactive)
C=CCCCCCCCCCP(=O)(c1ccccc1)c1ccc2c(c1)OCCOCCOCCOCCO2 (configuration not stated) | 16.3 µM (inactive) |  | 18.7 µM (inactive) | 13.6 µM (inactive) | 15.1 µM (inactive) | 14.1 µM (inactive) |  | 18.4 µM (inactive) | 
CN(C)CC1CC/C(=C\c2ccc(Cl)c(Cl)c2)C1=O (configuration not stated) | > 62.4 µM (inactive) | 13.2 µM (inactive) | > 46.8 µM (inactive) | 16 µM (inactive) | 28.8 µM (inactive) | > 34.5 µM (inactive) | > 47.8 µM (inactive) | 29.4 µM (inactive) | 
Cc1ccc(CCNC(=S)SCC(NC(=O)CCC(N)C(=O)O)C(=O)NCC(=O)O)cc1 (configuration not stated) | 2.52 µM (inactive) | 0.75 µM (active) | 1.49 µM (inactive) | 0.764 µM (active) | 0.414 µM (active) | 2.12 µM (inactive) | 0.873 µM (active) | 1.7 µM (inactive) | 2.2 µM (inactive)
Cc1ccc(NC(=O)CC/C(CC(=O)C(C)(C)C)=N/NC(=O)C[N+](C)(C)C)cc1C | > 100 µM (inactive) | > 100 µM (inactive) |  | > 100 µM (inactive) |  | > 100 µM (inactive) | > 100 µM (inactive) | > 100 µM (inactive) | 
Cc1cc(N(CCC#N)CCC#N)ccc1/C=C(/NC(=O)/C=C/c1ccccc1)C(N)=O |  | > 100 µM (inactive) | 39.7 µM (inactive) | > 100 µM (inactive) | > 100 µM (inactive) | > 100 µM (inactive) | > 100 µM (inactive) | > 100 µM (inactive) | 
CC1=C(C(=O)CC(=O)C(=O)Nc2ccccc2)Sc2ccccc2N1 | 78.3 µM (inactive) | > 100 µM (inactive) | > 100 µM (inactive) | > 100 µM (inactive) |  | > 100 µM (inactive) | > 100 µM (inactive) | > 100 µM (inactive) | > 100 µM (inactive)
